Measurements taken from PubChem BioAssay (NCI).
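Protocol summary: plate cells (96-well), add compound at 5 concentrations, incubate 48 h, interpolate endpoints linearly. Abbreviation: GI50, concentration required for 50% inhibition of growth. TGI denotes the concentration required for complete inhibition of growth.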

Experiments:
Test in all cases: NCI-60 cell line screen, 48 h
[1] = system: 786-0 renal
[2] = system: A498 renal
[3] = system: A549 NSCLC
[4] = system: ACHN renal
[5] = system: BT-549 breast
[6] = system: CAKI-1 renal
[7] = system: CCRF-CEM leukemia
[8] = system: COLO 205 colon
[9] = system: DU-145 prostate
[10] = system: EKVX NSCLC
[11] = system: HCC-2998 colon
[12] = system: HCT-116 colon
[13] = system: HCT-15 colon
[14] = system: HL-60(TB) leukemia
[15] = system: HOP-62 NSCLC
[16] = system: HOP-92 NSCLC
[17] = system: HS 578T breast
[18] = system: HT29 colon
[19] = system: IGROV1 ovarian
[20] = system: K-562 leukemia
[21] = system: KM12 colon
[22] = system: LOX IMVI melanoma
[23] = system: M14 melanoma
[24] = system: MALME-3M melanoma
[25] = system: MCF7 breast
[26] = system: MDA-MB-231 breast
[27] = system: MDA-MB-435
[28] = system: MDA-MB-468 breast
[29] = system: MOLT-4 leukemia
[30] = system: NCI-H226 lung
[31] = system: NCI-H23 lung
[32] = system: NCI-H460 lung
[33] = system: NCI-H522 lung
[34] = system: OVCAR-3 ovarian
[35] = system: OVCAR-4 ovarian
[36] = system: OVCAR-5 ovarian
[37] = system: OVCAR-8 ovarian
[38] = system: PC-3 prostate
[39] = system: RPMI-8226 leukemia
[40] = system: RXF 393 renal
[41] = system: SF-268 CNS
[42] = system: SF-295 CNS
[43] = system: SF-539 CNS
[44] = system: SK-MEL-2 melanoma
[45] = system: SK-MEL-28 melanoma
[46] = system: SK-MEL-5 melanoma
[47] = system: SK-OV-3 ovarian
[48] = system: SN12C renal
[49] = system: SNB-19 CNS
[50] = system: SNB-75 CNS
[51] = system: SR leukemia
[52] = system: SW-620 colon
[53] = system: T-47D breast
[54] = system: TK-10 renal
[55] = system: U251 CNS
[56] = system: UACC-257 melanoma
[57] = system: UACC-62 melanoma
[58] = system: UO-31 renal

O=C1Nc2cc(Cl)ccc2/C1=C/c1cccc(OCc2ccccc2)c1
GI50 [1]: 3.12 µM | TGI [1]: 15.9 µM | GI50 [2]: 13.7 µM | TGI [2]: 27.9 µM | GI50 [3]: 10 µM | TGI [3]: 24.9 µM | GI50 [4]: 3.97 µM | TGI [4]: 16.1 µM | GI50 [5]: 2.44 µM | TGI [5]: 11.2 µM | GI50 [6]: 2.77 µM | TGI [6]: 16.4 µM | GI50 [7]: 2.86 µM | TGI [7]: 13.1 µM | GI50 [8]: 13.8 µM | TGI [8]: 30.2 µM | GI50 [9]: 10.9 µM | TGI [9]: 42.1 µM | GI50 [10]: 5.35 µM | TGI [10]: 23.7 µM | GI50 [11]: 11.9 µM | TGI [11]: 25.3 µM | GI50 [12]: 2.43 µM | TGI [12]: 12.7 µM | GI50 [13]: 2.58 µM | TGI [13]: 13.3 µM | GI50 [14]: 2.23 µM | TGI [14]: 6.49 µM | GI50 [15]: 9.61 µM | TGI [15]: 29.1 µM | GI50 [16]: 1.33 µM | TGI [16]: 9.75 µM | GI50 [17]: 3.46 µM | TGI [17]: 22.8 µM | GI50 [18]: 5.92 µM | TGI [18]: 20.3 µM | GI50 [19]: 3.43 µM | TGI [19]: 18.3 µM | GI50 [20]: 2.13 µM | TGI [20]: 10.2 µM | GI50 [21]: 3.69 µM | TGI [21]: 14.1 µM | GI50 [22]: 2.75 µM | TGI [22]: 11.4 µM | GI50 [23]: 3.19 µM | TGI [23]: 15.5 µM | GI50 [24]: 4.3 µM | TGI [24]: 16.7 µM | GI50 [25]: 1.67 µM | TGI [25]: 12.9 µM | GI50 [26]: 4.76 µM | TGI [26]: 18.6 µM | GI50 [27]: 2.04 µM | TGI [27]: 4.45 µM | GI50 [28]: 2.43 µM | TGI [28]: 14.1 µM | GI50 [29]: 2.69 µM | TGI [29]: 10.9 µM | GI50 [30]: 6.43 µM | TGI [30]: 22.2 µM | GI50 [31]: 4.23 µM | TGI [31]: 21.5 µM | GI50 [32]: 3.24 µM | TGI [32]: 11.5 µM | GI50 [33]: 2.93 µM | TGI [33]: 12.2 µM | GI50 [34]: 2.89 µM | TGI [34]: 9.48 µM | GI50 [35]: 3.7 µM | TGI [35]: 19.1 µM | GI50 [36]: 11.8 µM | TGI [36]: 24.4 µM | GI50 [37]: 6.86 µM | TGI [37]: 25.3 µM | GI50 [38]: 4.67 µM | TGI [38]: 20.5 µM | GI50 [39]: 2.13 µM | TGI [39]: 11.7 µM | GI50 [40]: 10.8 µM | TGI [40]: 24.4 µM | GI50 [41]: 3.26 µM | TGI [41]: 15.1 µM | GI50 [42]: 5.18 µM | TGI [42]: 21 µM | GI50 [43]: 2.27 µM | TGI [43]: 5.49 µM | GI50 [44]: 3.68 µM | TGI [44]: 15 µM | GI50 [45]: 5.3 µM | TGI [45]: 17.9 µM | GI50 [46]: 3.17 µM | TGI [46]: 11.4 µM | GI50 [47]: 13.1 µM | TGI [47]: 31.6 µM | GI50 [48]: 6.93 µM | TGI [48]: 20.3 µM | GI50 [49]: 10.2 µM | TGI [49]: 25.7 µM | GI50 [50]: 3.23 µM | TGI [50]: 21.2 µM | GI50 [51]: 2.1 µM | TGI [51]: 5.86 µM | GI50 [52]: 3.59 µM | TGI [52]: 14.5 µM | GI50 [53]: 4.73 µM | TGI [53]: 30 µM | GI50 [54]: 16.2 µM | TGI [54]: 35.9 µM | GI50 [55]: 3.5 µM | TGI [55]: 13.7 µM | GI50 [56]: 6.18 µM | TGI [56]: 21.2 µM | GI50 [57]: 2.41 µM | TGI [57]: 10.1 µM | GI50 [58]: 2.45 µM | TGI [58]: 18.6 µM

COc1ccc2[nH]cc(-c3cc4nc(-c5cn(C)c6ncc(Br)cc56)cc(N)n4n3)c2c1
GI50 [1]: 1.77 µM | TGI [1]: 3.29 µM | GI50 [2]: 2.22 µM | TGI [2]: 7.01 µM | GI50 [3]: 1.77 µM | TGI [3]: 5.07 µM | GI50 [4]: 1.46 µM | TGI [4]: 3.35 µM | GI50 [5]: 2.14 µM | TGI [5]: 4.67 µM | GI50 [6]: 1.41 µM | TGI [6]: 3.54 µM | GI50 [7]: 2.85 µM | TGI [7]: > 100 µM | GI50 [8]: 1.82 µM | TGI [8]: 3.45 µM | GI50 [9]: 1.78 µM | TGI [9]: 3.64 µM | GI50 [10]: 1.66 µM | TGI [10]: 3.84 µM | GI50 [11]: 1.74 µM | TGI [11]: 3.17 µM | GI50 [12]: 1.81 µM | TGI [12]: 3.3 µM | GI50 [13]: 1.35 µM | TGI [13]: 2.81 µM | GI50 [15]: 2.07 µM | TGI [15]: 5.49 µM | GI50 [17]: 1.8 µM | TGI [17]: 4.58 µM | GI50 [18]: 1.96 µM | TGI [18]: 3.95 µM | GI50 [19]: 1.65 µM | TGI [19]: 3.43 µM | GI50 [20]: 2.59 µM | TGI [20]: > 100 µM | GI50 [21]: 1.99 µM | TGI [21]: 4.42 µM | GI50 [22]: 1.65 µM | TGI [22]: 3.11 µM | GI50 [23]: 1.83 µM | TGI [23]: 3.55 µM | GI50 [24]: 1.68 µM | TGI [24]: 3.17 µM | GI50 [25]: 1.67 µM | TGI [25]: 3.05 µM | GI50 [26]: 1.65 µM | TGI [26]: 3.36 µM | GI50 [27]: 1.68 µM | TGI [27]: 3.21 µM | GI50 [28]: 1.42 µM | TGI [28]: 2.86 µM | GI50 [29]: 2.24 µM | TGI [29]: > 100 µM | GI50 [30]: 1.95 µM | TGI [30]: 3.97 µM | GI50 [31]: 1.76 µM | TGI [31]: 3.51 µM | GI50 [32]: 1.8 µM | TGI [32]: 3.47 µM | GI50 [34]: 1.81 µM | TGI [34]: 3.49 µM | GI50 [35]: 1.84 µM | TGI [35]: 3.79 µM | GI50 [36]: 1.59 µM | TGI [36]: 3.44 µM | GI50 [37]: 1.86 µM | TGI [37]: 3.66 µM | GI50 [38]: 2.54 µM | TGI [38]: 10.3 µM | GI50 [39]: 2.91 µM | TGI [39]: > 100 µM | GI50 [40]: 1.73 µM | TGI [40]: 3.23 µM | GI50 [41]: 1.84 µM | TGI [41]: 4.33 µM | GI50 [42]: 1.57 µM | TGI [42]: 3.07 µM | GI50 [43]: 1.64 µM | TGI [43]: 3.03 µM | GI50 [44]: 1.68 µM | TGI [44]: 3.25 µM | GI50 [45]: 1.67 µM | TGI [45]: 3.08 µM | GI50 [46]: 1.78 µM | TGI [46]: 3.34 µM | GI50 [47]: 2.38 µM | TGI [47]: 5.64 µM | GI50 [48]: 1.7 µM | TGI [48]: 3.3 µM | GI50 [49]: 2.45 µM | TGI [49]: 6.63 µM | GI50 [51]: 2.74 µM | TGI [51]: > 100 µM | GI50 [52]: 1.75 µM | TGI [52]: 3.35 µM | GI50 [54]: 2.48 µM | TGI [54]: 6.39 µM | GI50 [56]: 1.72 µM | TGI [56]: 3.48 µM | GI50 [57]: 1.55 µM | TGI [57]: 3.04 µM | GI50 [58]: 1.73 µM | TGI [58]: 4.16 µM
